Earlier results in patent publication US11564931B2, “Low benzalkonium chloride bimatoprost ophthalmic compositions with effective penetration and preservation properties” (Somerset Therapeutics LLC, priority 2019, dated 2023).

Conditions: patients starting on monotherapy; Covert D et al. 2006

Compared with `CCNC(=O)CCC/C=C\C[C@@H]1[C@@H](/C=C/[C@@H](O)CCc2ccccc2)[C@H](O)C[C@@H]1O` [bimatoprost, (Z)-7-[(1R, 2R, 3R, 5S)-3,5-Dihydroxy-2-[(1E, 3S)-3-hydroxy-5-phenyl-1-pentenyl]cyclopentyl]-5-N-ethylheptenamide], `CC(C)OC(=O)CCC/C=C\C[C@@H]1[C@@H](CC[C@@H](O)CCc2ccccc2)[C@H](O)C[C@@H]1O` [latanoprost] is higher in “Rate of adjunctive medication use” value: 23.2% for the first, 30.2% for the second.

In the case of `CC(C)OC(=O)CCC/C=C\C[C@@H]1[C@@H](/C=C/[C@@H](O)COc2cccc(C(F)(F)F)c2)[C@H](O)C[C@@H]1O` [travoprost], the “Rate of adjunctive medication use” value is given as 22.5%.
